No end group written: not given here.
Experiments:
[1] = test system: NHK cells; experiment: Comets test on UVB-irradiated NHK cells (DNA damage, Tail Moment); type: cell-based, human
Description: For this purpose, NHK cells were: • under condition a: cultured for 24 hours with the peptide compound of sequence SEQ ID NO: 3 at a concentration of 1% and 3%, and then irradiated with UVB radiation at 20 mJ/cm^2, in order to observe the protective effect of the peptide active ingredient on the cells; • under condition b: irradiated, in a first step, with UVB radiation at 20 mJ/cm^2, and then treated for 24 hours with said peptide compound at a concentration of 1% and 3%, in order to observe the repairing effect of the active ingredient on the cells.
The cells were then removed by trypsination from their carrier, and then centrifuged at 900 rpm for 5 minutes before being concentrated and counted.
A specific cell count (25,000 cells) was then incorporated into a 0.75% Low Melting agarose gel, and then deposited on a glass slide previously coated with 1% agarose. The slides were then immersed in a lysis solution for 1.5 hours at 4° C., and then in an alkaline solution for 20 minutes at 4° C. The cells were then lysed and the DNA denatured. The slides were immersed in an electrophoresis solution before applying an electric field (20 V-250 mA). The thus denatured DNA was subjected to migration within an agarose gel at 4° C. Applying a DNA fluorescent dye on the slides (2 μg/ml propidium iodide) allowed the DNA to be observed in the form of comets in those cases where it had been damaged.
Quantification software is used to determine the average Tail Moment applied to each condition being tested. This parameter provides information on the level of DNA damage: the higher it is, the greater the DNA damage.

[2] = test system: pro/filaggrin; experiment: Pro/filaggrin immunostaining in cultured human skin biopsies; type: cell-based; settings: peptide at 1% or 3%, 24 hours and 72 hours, dose-dependent and increases with time
Description: Samples of human skin were cultured at the air/liquid interface. Under a first condition, the samples were treated with the 1% peptide SEQ ID NO: 1 for 24 hours and 72 hours. Under a second condition, the samples were treated with the same peptide but at a concentration of 3% for 24 hours and 72 hours.
These skin samples were thereafter fixed with formaldehyde and then incorporated in paraffin. Sections 2 to 3 μm in size were then made. Immunostaining was carried out after unmasking specific sites by incubation in pepsin. Immunostaining was then performed by means of a filaggrin-specific mouse monoclonal antibody (Tebu Santa Cruz), followed by a secondary antibody, coupled with a fluorescent marker. The skin sections were then examined using an epifluorescence microscope (Nikon® Eclipse E600 microscope).

[3] = test system: cyclobutane-pyrimidine dimers; experiment: CPD immunostaining on human skin biopsies subjected to UVB radiation; type: cell-based; settings: UVB 200 mJ/cm^2, then topical 1% or 3% solution for 24 hours; repair dose-dependent
Description: Human skin biopsies were cultured at the air/liquid interface. These biopsies were subjected to UVB radiation at 200 mJ/cm^2. After irradiation, under a first condition, a 1%-solution of peptide SEQ ID NO: 2 was applied topically to the biopsies for 24 hours. Under a second condition, a 3%-solution of peptide SEQ ID NO: 2 was applied topically for 24 hours. Control conditions are achieved by the topical application of a PBS solution after irradiation.
For staining the cyclobutane-pyrimidine dimers, the skin biopsies were incorporated into paraffin and histological 3 μm thick sections were made. The slides were deparaffinized, hydrated and subjected to immunostaining with an antibody directed against cyclobutane-pyrimidine dimers (MBL D194-1, mouse monoclonal), followed by a suitable secondary antibody (Invitrogen™ A21202), coupled with a fluorescent marker. The skin sections were then examined with an epifluorescence microscope (Nikon® Eclipse E 80i microscope).

[4] = test system: caspase-14; experiment: Caspase-14 expression in normal human keratinocytes by immunofluorescence; type: cell-based; settings: NHKs, peptide at 1% or 3%, 24 hours; dose-dependent, greater at 3% than at 1%
Description: Cultured normal human keratinocytes, NHKs, were treated with 1% or 3%-peptide SEQ ID NO: 2 for 24 hours. The cells were then washed, fixed with 3.7%-paraformaldehyde using 0.1%-triton in the presence of bovine serum albumin (BSA) (diluted to 1/100th). The cells were incubated in the presence of a caspase-14-specific mouse monoclonal antibody (BD Biosciences), and then of a secondary antibody, coupled with a fluorescent marker. The cells were then examined by means of an epifluorescence microscope (Nikon® Eclipse E600 microscope).

[5] = test system: caspase-14; experiment: Caspase-14 expression by Western Blot in NHKs with or without caspase-14 siRNA; type: cell-based, human
Description: NHK cells were cultured in 6-well plates up to a confluence of 60% and then treated with 20 μL of 1%-peptide SEQ ID NO: 2. Then, 100 μL of a previously prepared mixture containing the siRNA of caspase-14 and the transfecting agent were carefully added dropwise, on a well per well basis. The cell culture plate was incubated at 37° C. and at 5% CO2 for 72 hours. The culture medium was renewed every 2 days. Four conditions were implemented: • condition 1: control containing no siRNA nor peptide active ingredient • condition 2: siRNA-transfected cells, containing no peptide active ingredient • condition 3: cells that are not transfected but treated with the peptide active ingredient • condition 4: cells transfected with siRNA, and treated with the peptide active ingredient
The quantification of caspase-14 expression is observed using the conventional immunoblotting technique (Western Blot) carried out by means of an anti-caspase-14 antibody and according to a conventional protocol. To analyze the compensation brought about by the peptide in the NHKs transfected with siRNA, a comparison was performed with respect to non-treated NHKs whose gene had not been extinguished by siRNA.

For “Asn-Arg-Ile-Gln-Ala-Cys-Arg-Gly-NH2 (NRIQACRG-NH2) [peptide SEQ ID NO: 3]”, which “Tail Moment decrease” value ([1]; condition a: 24 hours pretreatment at 1%, then UVB 20 mJ/cm^2, vs UVB control) is on record?
The value was 57%.

And the “Tail Moment decrease” value ([1]; condition a: 24 hours pretreatment at 3%, then UVB 20 mJ/cm^2, vs UVB control)?
The value was 57%.

And the “Tail Moment decrease” value ([1]; condition b: UVB 20 mJ/cm^2, then 24 hours treatment at 1%)?
Its value is 31%.

And the “Tail Moment decrease” value ([1]; condition b: UVB 20 mJ/cm^2, then 24 hours treatment at 3%)?
The value was 58%.

With “Asp-Pro-Ile-Gln-Ala-Cys-Arg-Gly-NH2 (DPIQACRG-NH2) [peptide SEQ ID NO: 1]” as the substance, how does the pro/filaggrin staining [2] read?
The pro/filaggrin staining was “increase”.

How did the “CPD fluorescence compared with the control conditions with UVB radiation” value [3] turn out when “Ile-Gln-Ala-Cys-Arg-Gly-NH2 (IQACRG-NH2) [peptide SEQ ID NO: 2]” was run?
Its value is “much weaker fluorescence”.

What about the “light intensity (caspase-14 fluorescence) with respect to the control conditions” value [4] of the same substance?
The value was “increase”.

And the “increase in caspase-14 protein expression with respect to the control” value ([5]; non-transfected NHKs, 1% peptide, 72 hours (condition 3 vs condition 1))?
The value was 20.9%.

And the “decrease in caspase-14 protein expression with respect to the control conditions” value ([5]; siRNA-transfected NHKs treated with 1% peptide, 72 hours (condition 4 vs condition 1))?
The value was 14%.
